{"source": "patent US20240415921A1", "about": "“METHODS OF TREATING CANCER BY TARGETING TUMOR-ASSOCIATED MACROPHAGES” (ENDOCYTE, INC., priority 2014, published 2024)", "test_system": "4T1 TAMs", "test": "Activity against 4T1 TAMs in-vivo (FACS of harvested tumors)", "set-up": "species or system nude rats", "conditions": "single i.v. dose (Example 1 100 nmol/kg; EC0923 alone 50 μmol/kg), tumors harvested four days later", "text": "EXAMPLE 4. Example 1 activity against 4T1 TAMs in-vivo. As a proof-of-concept study, female Foxn1^nu nude rats (Harlan, Inc., Indianapolis, IN) on a folate-deficient diet are subcutaneously implanted with 1×10^6 4T1 tumor cells in the left and right mammary regions (2 tumors per animal). When the tumors reach about 900-1000 mm^3, the animals are intravenously dosed with (i) PBS (n=1), (ii) 100 nmol/kg of the folic acid-releasable linker-drug conjugate, such as Example1 (n=1), (iii) 100 nmol/kg of Example1 plus 50 μmol/kg of EC0923 (n=1), or (iv) 50 μmol/kg of EC0923 (n=1). Four days later, the tumors are harvested, enzymatically digested, and subjected to FACS analysis. The tumor cell suspensions are stained for macrophage markers (CD163 and/or CD11b), cell viability (propidium iodide), and late and early apoptosis (Annexin V).\nEXAMPLE 13. Preparation of 4T1 xenograft tumors from nude rats and MDA-MB-231 tumors isolated from nude mice and A549 tumors isolated from nude mice. Each tumor is minced and placed into 20 mL of RPMI1640 (serum free) containing 0.5 mg/mL Collagenase IV, 0.05 mg/mL hyaluronidase, and 0.1 mg/mL DNaseI and placed in a shaker at 200 rpm for 1 hr at 37° C. […]", "data": [{"smiles": "Nc1nc2ncc(CNc3ccc(C(=O)N[C@@H](CCC(=O)N[C@H](CC(=O)O)C(=O)N[C@H](CC(=O)O)C(=O)O)C(=O)O)cc3)nc2c(=O)[nH]1", "note": "[EC0923, pteroyl-[…]Glu-D-Asp-D-Asp]", "values": [{"measurement": "viable CD163(+) CD11b(+) TAM population in 4T1 tumors", "value": "does not have any effect"}]}]}
